System: VGLUT3 (BON VGLUT3 cells)
Assay: Confocal fluorescence labeling of BON cells expressing VGLUT3
Type: cell-based, human (BON cells)
Settings: for intensity of labeling in BON VGLUT3 cells relative to BON WT cells: FIG. 3, 20 minutes; for intensity of labeling in BON VGLUT3 cells relative to BON WT cells / fluorescence intensity in BON VGLUT3 cells relative to BON WT cells / labeling in cytoplasm of BON VGLUT3 cells: 37 °C; for fluorescence intensity in BON VGLUT3 cells relative to BON WT cells / labeling in cytoplasm of BON VGLUT3 cells / effect of LSP5 pretreatment on fluorescence intensity in BON VGLUT3 cells: FIG. 2; for fluorescence intensity in BON VGLUT3 cells relative to BON WT cells / labeling in cytoplasm of BON VGLUT3 cells: 1 h; for effect of LSP5 pretreatment on fluorescence intensity in BON VGLUT3 cells: pretreatment with LSP5-2157
Experimental: A “BON” cell line describes cells derived from human pancreatic carcinoma; the article by Ramet L. et al., published in J Neurosci, 2017, 37 (15), 4181-4199, describes such cells and the use thereof for the characterization of VGLUT type transporters.
The experiments are carried out with a BON cell line stably expressing VGLUT3 or a fluorescent VGLUT2 “VGLUT2-venus”. Wild non-transfected BON cells (“wild-type”, BON WT) are used as controls. The cells are cultured in F-12 Nutrient Mixture Ham medium (21765-029, Thermo Fisher Scientific) and Dulbecco's Modified Eagle's Medium High Glucose (DMEM HG, 31966021, Thermo Fisher Scientific; volume/volume), supplemented with 10% fetal calf serum (FCS, 12483012, Thermo Fisher Scientific) and 1% (volume/volume) of a mixture of streptomycin (10 mg/mL)/penicillin (10,000 U/mL) and […] an incubator at 37 °C under 5% CO2. For the transfected clones, the medium is enriched with 0.8 mg/mL Geneticin G418 sulfate (G418, 10131027, Thermo Fisher Scientific).
The cells are cultured in 25 cm^2 culture flasks. When the cells are at confluence, they are rinsed with sterile PBS 1× after aspiration of the medium, then incubated for five minutes at 37 °C with a solution of trypsin-EDTA (0.05% trypsin EDTA, 25300054, Thermo Fisher Scientific. The cell layer is then detached and the cells dissociated from each other. After addition of medium, the cell suspension is centrifuged for 5 minutes at 300 g, then the pellet is diluted 1:3 in order to be recultivated.
Two days before each experiment, after trypsinization of the cells from a culture flask, the cell suspension is seeded at 150,000 cells/well, in twelve-well plates on glass coverslips 19 mm in diameter. For observation, these coverslips are placed in a chamber allowing a hermetic fixation of the coverslip in the observation medium, Fluorobrite™ DMEM (A1896701, Thermo Fisher Scientific), a transparent medium.
Before each observation, the cells are incubated at 37 °C in the presence of fluorescent ligands, at previously determined concentrations. The effect of a pretreatment of BON cells with a specific inhibitor of VGLUTs, the substance LSP5-2157, is also performed to study the inhibitory effect of this substance on the labeling of BON cells with the fluorescent ligands of the invention.
The cells are observed in real time under an inverted confocal microscope, with a 63× objective in a room thermostated at 37 °C (Leica TCS SP5; cellular imaging platform of the Paris-Seine Institute of Biology). The studied fluorescent molecules emit in the blue, the cells are excited at 405 nm.
FIG. 2 illustrates the observation and quantification of the BON cells under a confocal microscope, and the inhibition of the fluorescent signal by a pretreatment of the cells with the specific VGLUT inhibitor, LSP5-2157. […] The images are presented in negative. D,H,L and P: Quantification of the treatment effect.
Different acquisitions of cells are carried out using a confocal microscope. […] Statistical analysis: Kruskal-Wallis test followed by Dunn's post-hoc test, NS: non-significant, *p<0.01; ***p<0.0001.
FIG. 3 illustrates the observation and quantification of BON cells using a confocal microscope. Wild-type cells (BON WT) or VGLUT3-expressing cells (BON VGLUT3) are incubated with different fluorescent ligands referenced: L8, YL151, D04, C07, C05, B09, G02, F11. After treatment with fluorescent ligands for 20 minutes at 37 °C, a fluorescent labeling is visible in BON cells. The effect of the treatment is analyzed by quantifying the fluorescence intensity in each cell type. […] Statistical analysis: Mann Whitney test, NS: non-significant, **p=0.0042; ***p<0.0001.

Row | Compound | intensity of labeling in BON VGLUT3 cells relative to BON WT cells | fluorescence intensity in BON VGLUT3 cells relative to BON WT cells | labeling in cytoplasm of BON VGLUT3 cells | effect of LSP5 pretreatment on fluorescence intensity in BON VGLUT3 cells
1 | Nc1ccc(-c2ccc(-c3cn(-c4ccc5oc(=O)c(C(=O)O)cc5c4)nn3)cc2)cc1 [LSP17-1115, 6-(4-(4′-amino-[1,1′-biphenyl]-4-yl)-1H-1,2,3-triazol-1-yl)-2-oxo-2H-chromene-3-carboxylic Acid] | increases significantly | – | – | –
2 | Nc1ccc(-c2ccc(C#Cc3cc4cc(C(=O)O)c(=O)oc4cc3O)cc2)cc1 [LSP17-1173, 6-((4′-amino-[1,1′-biphenyl]-4-yl)ethynyl)-7-hydroxy-2-oxo-2H-chromene-3-carboxylic Acid] | increases significantly | significantly increases | a punctiform labeling appears | decreases the fluorescence intensity
3 | COc1cc2oc(=O)c(C(=O)O)cc2cc1-n1cc(-c2ccc(-c3ccc(N)cc3)cc2)nn1 [LSP17-1124, 6-(4-(4′-amino-[1,1′-biphenyl]-4-yl)-1H-1,2,3-triazol-1-yl)-7-methoxy-2-oxo-2H-chromene-3-carboxylic Acid] | increases significantly | – | – | –
4 | CCOC(=O)c1cc2cc(C#Cc3ccc(-c4ccc(N)cc4)cc3)c(O)cc2oc1=O [F11, Ethyl-6-((4′-amino-[1,1′-biphenyl]-4-yl)ethynyl)-7-hydroxy-2-oxo-2H-chromene-3-carboxylate] | increases significantly | – | – | –
5 | O=C(O)c1cc(C(=O)O)c2cc(-c3ccc(-c4ccccc4)cc3)ccc2n1 [LSP13-1152-YL152 (L8), 6-(Biphenyl-4-yl) quinoline-2,4-dicarboxylic Acid] | increases significantly | significantly increases | a punctiform labeling appears | decreases the fluorescence intensity
